Reference: ChEMBL document CHEMBL3885881, “DrugMatrix”

Species: Rattus norvegicus
Test: DrugMatrix - Regimen: Daily Repeat
Assay type: toxicity, organism-based, Sprague-Dawley
Parameters: regimen Daily Repeat, gender Male, age 6-8 weeks
Conditions: in vivo, po, 430 mg/kg, route oral GAVAGE, dose level High, vehicle .5 % CMC; for ABSOLUTE BASOPHIL / ABSOLUTE EOSINOPHIL / ABSOLUTE LYMPHOCYTE / ABSOLUTE MONOCYTE / ABSOLUTE SEGMENTED NEUTROPHIL / BASOPHIL / EOSINOPHIL / ERYTHROCYTE COUNT / HEMATOCRIT / HEMOGLOBIN / LEUKOCYTE COUNT / LYMPHOCYTE / MEAN CORPUSCULAR HEMOGLOBIN / MEAN CORPUSCULAR HEMOGLOBIN CONCENTRATION / MEAN CORPUSCULAR VOLUME / MONOCYTE / NEUTROPHIL / NUCLEATED RED BLOOD CELLS / PLATELET COUNT: tissue Blood; for ALANINE AMINOTRANSFERASE / ALBUMIN / ALKALINE PHOSPHATASE / ASPARTATE AMINOTRANSFERASE / BLOOD UREA NITROGEN / CARBON DIOXIDE / CHLORIDE / CHOLESTEROL / CREATININE / GLUCOSE / LACTATE DEHYDROGENASE / LIPASE / PHOSPHORUS / POTASSIUM / SODIUM / TOTAL BILIRUBIN / TOTAL PROTEIN / URIC ACID: tissue Plasma

## ClC(Cl)Br [BROMODICHLOROMETHANE]
72 h, time 3 day
  ABSOLUTE BASOPHIL: 0 CELLS/uL
  ABSOLUTE EOSINOPHIL: 216.67 CELLS/uL
  ABSOLUTE LYMPHOCYTE: 11508.33 CELLS/uL
  ABSOLUTE MONOCYTE: 948.33 CELLS/uL
  ABSOLUTE SEGMENTED NEUTROPHIL: 1326.67 CELLS/uL
  BASOPHIL: 0%
  EOSINOPHIL: 1.33%
  ERYTHROCYTE COUNT: 6.13 x10E6/uL
  HEMATOCRIT: 37.07%
  HEMOGLOBIN: 13.87 G/DL
  LEUKOCYTE COUNT: 14 x10E3/uL
  LYMPHOCYTE: 82.33%
  MEAN CORPUSCULAR HEMOGLOBIN: 22.63 pg
  MEAN CORPUSCULAR HEMOGLOBIN CONCENTRATION: 37.4 G/DL
  MEAN CORPUSCULAR VOLUME: 60.47 fL
  MONOCYTE: 6.67%
  NEUTROPHIL: 9.67%
  NUCLEATED RED BLOOD CELLS: 0 /100WBC
  PLATELET COUNT: 1186 x10E3/uL
  ALANINE AMINOTRANSFERASE: 73.33 u/L
  ALBUMIN: 4.57 G/DL
  ALKALINE PHOSPHATASE: 459.67 u/L
  ASPARTATE AMINOTRANSFERASE: 106 u/L
  BLOOD UREA NITROGEN: 18.67 mg/dL
  CARBON DIOXIDE: 23 mmol/L
  CHLORIDE: 104.67 MEQ/L
  CHOLESTEROL: 72 mg/dL
  CREATININE: 0.22 mg/dL
  GLUCOSE: 124.33 mg/dL
  LACTATE DEHYDROGENASE: 655 u/L
  LIPASE: 9 u/L
  PHOSPHORUS: 12.47 mg/dL
  POTASSIUM: 6.06 MEQ/L
  SODIUM: 141.67 MEQ/L
  TOTAL BILIRUBIN: 0.27 mg/dL
  TOTAL PROTEIN: 5.93 G/DL
  URIC ACID: 1.9 mg/dL
120 h, time 5 day
  ABSOLUTE BASOPHIL: 0 CELLS/uL
  ABSOLUTE EOSINOPHIL: 20 CELLS/uL
  ABSOLUTE LYMPHOCYTE: 7894 CELLS/uL
  ABSOLUTE MONOCYTE: 268.67 CELLS/uL
  ABSOLUTE SEGMENTED NEUTROPHIL: 750.67 CELLS/uL
  BASOPHIL: 0%
  EOSINOPHIL: 0.33%
  ERYTHROCYTE COUNT: 6.18 x10E6/uL
  HEMATOCRIT: 35.9%
  HEMOGLOBIN: 13 G/DL
  LEUKOCYTE COUNT: 8.93 x10E3/uL
  LYMPHOCYTE: 88.67%
  MEAN CORPUSCULAR HEMOGLOBIN: 21.07 pg
  MEAN CORPUSCULAR HEMOGLOBIN CONCENTRATION: 36.23 G/DL
  MEAN CORPUSCULAR VOLUME: 58.1 fL
  MONOCYTE: 2.67%
  NEUTROPHIL: 8.33%
  NUCLEATED RED BLOOD CELLS: 0 /100WBC
  PLATELET COUNT: 970.33 x10E3/uL
  ALANINE AMINOTRANSFERASE: 85 u/L
  ALBUMIN: 4.6 G/DL
  ALKALINE PHOSPHATASE: 399.33 u/L
  ASPARTATE AMINOTRANSFERASE: 105 u/L
  BLOOD UREA NITROGEN: 12.67 mg/dL
  CARBON DIOXIDE: 33.67 mmol/L
  CHLORIDE: 103.67 MEQ/L
  CHOLESTEROL: 63.33 mg/dL
  CREATININE: 0.21 mg/dL
  GLUCOSE: 116 mg/dL
  LACTATE DEHYDROGENASE: 107.67 u/L
  LIPASE: 9.33 u/L
  PHOSPHORUS: 10.87 mg/dL
  POTASSIUM: 5.17 MEQ/L
  SODIUM: 146.4 MEQ/L
  TOTAL BILIRUBIN: 0.23 mg/dL
  TOTAL PROTEIN: 6.17 G/DL
  URIC ACID: 0.8 mg/dL
[…], time 14 day
  ABSOLUTE BASOPHIL: 0 CELLS/uL
  ABSOLUTE EOSINOPHIL: 120.4 CELLS/uL
  ABSOLUTE LYMPHOCYTE: 11064.6 CELLS/uL
  ABSOLUTE MONOCYTE: 372 CELLS/uL
  ABSOLUTE SEGMENTED NEUTROPHIL: 2303 CELLS/uL
  BASOPHIL: 0%
  EOSINOPHIL: 0.8%
  ERYTHROCYTE COUNT: 6.18 x10E6/uL
  HEMATOCRIT: 34.92%
  HEMOGLOBIN: 12.94 G/DL
  LEUKOCYTE COUNT: 13.86 x10E3/uL
  LYMPHOCYTE: 80.8%
  MEAN CORPUSCULAR HEMOGLOBIN: 20.96 pg
  MEAN CORPUSCULAR HEMOGLOBIN CONCENTRATION: 37.08 G/DL
  MEAN CORPUSCULAR VOLUME: 56.58 fL
  MONOCYTE: 2.6%
  NEUTROPHIL: 15.8%
  NUCLEATED RED BLOOD CELLS: 0 /100WBC
  PLATELET COUNT: 862.2 x10E3/uL
  ALANINE AMINOTRANSFERASE: 65.6 u/L
  ALBUMIN: 4.56 G/DL
  ALKALINE PHOSPHATASE: 422.2 u/L
  ASPARTATE AMINOTRANSFERASE: 104.6 u/L
  BLOOD UREA NITROGEN: 19.6 mg/dL
  CARBON DIOXIDE: 25.8 mmol/L
  CHLORIDE: 106.8 MEQ/L
  CHOLESTEROL: 71.4 mg/dL
  CREATININE: 0.25 mg/dL
  GLUCOSE: 140.6 mg/dL
  LACTATE DEHYDROGENASE: 190 u/L
  LIPASE: 9.2 u/L
  PHOSPHORUS: 10.96 mg/dL
  POTASSIUM: 5.79 MEQ/L
  SODIUM: 145.9 MEQ/L
  TOTAL BILIRUBIN: 0.16 mg/dL
  TOTAL PROTEIN: 6.14 G/DL
  URIC ACID: 1.44 mg/dL
